Calls of active or inactive are those of the source. The rule behind the calls is not given here.
How the values were obtained:
Mus musculus [1] = assay: Anti-pulmonary fibrotic activity against bleomycin induced pulmonary fibrosis mouse model assessed as reduction in inflammatory cell infiltration at 10 to 20 mg/kg, ip administered every alternative day for 8 to 21 days after modeling; type: functional, organism-based; details: dose 10-20 mg/kg, time 8-21 day
NIH3T3 [2] = assay: Antifibrotic activity in mouse NIH3T3 cells assessed as decrease in TGFbeta-induced alpha-SMA expression measured after 48 hrs incubation by Western blotting analysis; type: functional, cell-based; details: dose 1-10 µM
NIH3T3 [3] = assay: Inhibition of TGFbeta-induced ERK1/2 phosphorylation in mouse NIH3T3 cells at 1 to 10 uM by Western blot analysis; type: functional, cell-based; details: dose 1-10 µM
[4] = MRT(0 to t) in Sprague-Dawley rat at 50 mg/kg, ip measured upto 4 hrs by UPLC-MS/MS analysis; type: ADME, organism-based; details: in vivo
[5] = Apparent volume of distribution in Sprague-Dawley rat at 50 mg/kg, po measured upto 4 hrs by UPLC-MS/MS analysis; type: ADME, organism-based; details: in vivo
[6] = Acute toxicity in Kunming female mouse assessed as Creatine kinase (CK) level at 180 mg/kg, ip measured after 14 days (reference value: 779.7 U/L); type: organism-based; details: in vivo, 336 h, time 14 day
NIH3T3 [7] = assay: Antifibrotic activity in mouse NIH3T3 cells assessed as decrease in TRPV1 expression measured after 48 hrs incubation by Western blotting analysis; type: functional, cell-based; details: dose 1-10 µM
[8] = VRT(0 to infinity) in Sprague-Dawley rat at 50 mg/kg, po measured upto 4 hrs by UPLC-MS/MS analysis; type: ADME, organism-based; details: in vivo
[9] = Acute toxicity in Kunming female mouse assessed as Direct bilirubin (D-Bil) level at 180 mg/kg, ip measured after 14 days (reference value: 3.37 micromol/L); type: organism-based; details: in vivo, 336 h, time 14 day
[10] = Acute toxicity in Kunming female mouse assessed as Lactate dehydrogenase (LDH) level at 180 mg/kg, ip measured after 14 days (reference value: 1952.7 U/L); type: organism-based; details: in vivo, 336 h, time 14 day
[11] = VRT(0 to infinity) in Sprague-Dawley rat at 50 mg/kg, iv measured upto 4 hrs by UPLC-MS/MS analysis; type: ADME, organism-based; details: in vivo
NIH3T3 [12] = assay: Inhibition of TGFbeta-induced p38 phosphorylation in mouse NIH3T3 cells at 1 to 10 uM by Western blot analysis; type: functional, cell-based; details: dose 1-10 µM
Rattus norvegicus [13] = assay: Zeta in Sprague-Dawley rat at 50 mg/kg, iv measured upto 4 hrs by UPLC-MS/MS analysis; type: ADME, organism-based; details: in vivo
[14] = Apparent volume of distribution in Sprague-Dawley rat at 50 mg/kg, iv measured upto 4 hrs by UPLC-MS/MS analysis; type: ADME, organism-based; details: in vivo, read-out: Vz
[15] = Acute toxicity in Kunming female mouse assessed as Aspartate aminotransferase (AST) level at 180 mg/kg, ip measured after 14 days (reference value: 116.2 U/L); type: organism-based; details: in vivo, 336 h, time 14 day
[16] = Half life in Sprague-Dawley rat at 50 mg/kg, po measured upto 4 hrs by UPLC-MS/MS analysis; type: ADME, organism-based; details: in vivo
[17] = Half life in Sprague-Dawley rat at 50 mg/kg, ip measured upto 4 hrs by UPLC-MS/MS analysis; type: ADME, organism-based; details: in vivo
[18] = Half life in Sprague-Dawley rat at 50 mg/kg, iv measured upto 4 hrs by UPLC-MS/MS analysis; type: ADME, organism-based; details: in vivo
[19] = AUMC(0 to t) in Sprague-Dawley rat at 50 mg/kg, iv measured upto 4 hrs by UPLC-MS/MS analysis; type: ADME, organism-based; details: in vivo
[20] = Acute toxicity in Kunming mouse assessed as organ lesions in kidney at 180 mg/kg, ip measured after 14 days by H and E staining based assay; type: organism-based; details: in vivo, 336 h, time 14 day
[21] = Acute toxicity in Kunming male mouse assessed as Alanine aminotransferase (ALT) level at 180 mg/kg, ip measured after 14 days (reference value: 55.3 U/L); type: organism-based; details: in vivo, 336 h, time 14 day
[22] = MRT(0 to infinity) in Sprague-Dawley rat at 50 mg/kg, po measured upto 4 hrs by UPLC-MS/MS analysis; type: ADME, organism-based; details: in vivo
[23] = target: Transient receptor potential cation channel subfamily V member 1 (Mus musculus) (UniProt Q704Y3); assay: Thermal stabilization of TRPV1 in mouse NIH3T3 cells assessed as reduction in TRPV1 degradation at 10 uM at 40 to 65 degreeC measured after 30 mins by CETSA; type: cell-based
Transient receptor potential cation channel subfamily V member 1 (Mus musculus), sequence (Q704Y3 whole entry): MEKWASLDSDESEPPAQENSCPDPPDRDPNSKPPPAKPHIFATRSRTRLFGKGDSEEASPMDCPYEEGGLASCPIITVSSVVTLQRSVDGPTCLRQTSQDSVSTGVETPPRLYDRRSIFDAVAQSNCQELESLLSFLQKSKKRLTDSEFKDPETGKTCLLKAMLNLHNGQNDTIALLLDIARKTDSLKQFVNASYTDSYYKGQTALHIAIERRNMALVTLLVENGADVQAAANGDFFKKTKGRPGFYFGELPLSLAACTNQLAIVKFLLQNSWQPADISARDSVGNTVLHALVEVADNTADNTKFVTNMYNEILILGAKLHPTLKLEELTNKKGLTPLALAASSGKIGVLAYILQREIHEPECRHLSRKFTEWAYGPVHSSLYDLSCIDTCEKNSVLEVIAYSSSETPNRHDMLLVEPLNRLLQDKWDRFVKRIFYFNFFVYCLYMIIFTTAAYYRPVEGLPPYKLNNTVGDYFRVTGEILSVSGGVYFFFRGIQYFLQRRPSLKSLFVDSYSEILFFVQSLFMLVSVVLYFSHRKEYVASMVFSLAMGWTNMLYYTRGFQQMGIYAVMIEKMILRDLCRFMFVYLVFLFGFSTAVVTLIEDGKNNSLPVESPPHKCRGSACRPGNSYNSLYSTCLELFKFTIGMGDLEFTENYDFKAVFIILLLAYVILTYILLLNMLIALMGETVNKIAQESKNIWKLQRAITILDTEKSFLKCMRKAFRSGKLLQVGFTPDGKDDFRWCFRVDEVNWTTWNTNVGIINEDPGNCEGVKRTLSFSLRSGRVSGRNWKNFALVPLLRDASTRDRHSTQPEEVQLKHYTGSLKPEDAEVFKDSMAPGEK

[24] = Acute toxicity in Kunming male mouse assessed as Creatine kinase (CK) level at 180 mg/kg, ip measured after 14 days (reference value: 710.6 U/L); type: organism-based; details: in vivo, 336 h, time 14 day
[25] = VRT(0 to infinity) in Sprague-Dawley rat at 50 mg/kg, ip measured upto 4 hrs by UPLC-MS/MS analysis; type: ADME, organism-based; details: in vivo
[26] = Cmax in Sprague-Dawley rat at 50 mg/kg, ip measured upto 4 hrs by UPLC-MS/MS analysis; type: ADME, organism-based; details: in vivo
Mus musculus [27] = assay: Anti-pulmonary fibrotic activity against bleomycin-induced pulmonary fibrosis mouse model assessed as inhibition of collagen I expression in lung tissue at 10 to 20 mg/kg, ip administered every alternative day for 8 to 21 days after modeling by immunohistochemical staining based assay; type: functional, organism-based; details: dose 10-20 mg/kg, time 8-21 day
[28] = Acute toxicity in Kunming male mouse assessed as Albumin (ALB) level at 180 mg/kg, ip measured after 14 days (reference value: 32.6 g/L); type: organism-based; details: in vivo, 336 h, time 14 day
Mus musculus [29] = assay: Anti-fibrotic activity against bleomycin-induced pulmonary fibrosis mouse model assessed as decrease in hydroxyproline level in lung tissue at 10 to 20 mg/kg, ip administered every alternative day for 8 to 21 days after modeling […]; type: functional, organism-based; details: dose 10-20 mg/kg, time 8-21 day
Rattus norvegicus [30] = assay: Zeta in Sprague-Dawley rat at 50 mg/kg, ip measured upto 4 hrs by UPLC-MS/MS analysis; type: ADME, organism-based; details: in vivo
[31] = Oral bioavailability in Sprague-Dawley rat at 50 mg/kg measured upto 4 hrs by UPLC-MS/MS analysis; type: ADME, organism-based; details: in vivo
[32] = Bioavailability in Sprague-Dawley rat at 50 mg/kg, ip measured upto 4 hrs by UPLC-MS/MS analysis; type: ADME, organism-based; details: in vivo
NIH3T3 [33] = assay: Anti-fibrotic activity in mouse NIH3T3 cells assessed as inhibition of TGFbeta-induced total collagen production measured after 48 hrs by Sirius Red Collagen Detection Kit relative to control; type: functional, cell-based; details: NIH3T3, 48 h
Mus musculus [34] = assay: Anti-pulmonary fibrotic activity against bleomycin-induced pulmonary fibrosis mouse model assessed as inhibition of alpha-SMA expression in lung tissue at 10 to 20 mg/kg, ip administered every alternative day for 8 to 21 days after modeling by immunohistochemical staining based assay; type: functional, organism-based; details: dose 10-20 mg/kg, time 8-21 day
[35] = AUC(0 to infinity) in Sprague-Dawley rat at 50 mg/kg, ip measured upto 4 hrs by UPLC-MS/MS analysis; type: ADME, organism-based; details: in vivo
[36] = target: Transient receptor potential cation channel subfamily V member 1 (Homo sapiens) (UniProt Q8NER1); assay: Inhibition of TRPV1 (unknown origin) overexpressed in HEK-293T cells assessed as decrease in TGFbeta-induced alpha-SMA expression at 10 uM measured after 48 hrs incubation by Western blotting analysis; type: cell-based
Transient receptor potential cation channel subfamily V member 1 (Homo sapiens), sequence (Q8NER1 whole entry): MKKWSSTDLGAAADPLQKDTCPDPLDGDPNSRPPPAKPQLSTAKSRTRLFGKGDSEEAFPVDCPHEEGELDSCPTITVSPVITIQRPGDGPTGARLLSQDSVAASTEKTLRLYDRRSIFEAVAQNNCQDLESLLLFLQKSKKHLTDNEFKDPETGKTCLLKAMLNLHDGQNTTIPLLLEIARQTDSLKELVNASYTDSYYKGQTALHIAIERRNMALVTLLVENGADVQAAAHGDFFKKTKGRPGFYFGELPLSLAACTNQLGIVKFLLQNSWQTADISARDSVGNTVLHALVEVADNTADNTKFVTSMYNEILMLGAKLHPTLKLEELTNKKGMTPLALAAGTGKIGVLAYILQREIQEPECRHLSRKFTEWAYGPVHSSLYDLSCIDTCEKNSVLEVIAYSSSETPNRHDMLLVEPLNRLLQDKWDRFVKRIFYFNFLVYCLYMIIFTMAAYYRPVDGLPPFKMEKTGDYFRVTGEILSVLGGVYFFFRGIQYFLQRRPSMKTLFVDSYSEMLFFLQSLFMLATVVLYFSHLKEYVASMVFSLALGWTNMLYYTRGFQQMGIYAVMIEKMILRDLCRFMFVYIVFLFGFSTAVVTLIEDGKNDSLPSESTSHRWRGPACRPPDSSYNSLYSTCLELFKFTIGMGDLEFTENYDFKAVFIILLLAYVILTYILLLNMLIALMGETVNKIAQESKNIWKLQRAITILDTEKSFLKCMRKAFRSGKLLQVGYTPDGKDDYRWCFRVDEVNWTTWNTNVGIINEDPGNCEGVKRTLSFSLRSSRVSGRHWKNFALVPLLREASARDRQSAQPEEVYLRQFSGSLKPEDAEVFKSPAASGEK

[37] = Acute toxicity in Kunming female mouse assessed as Uric acid (UA) level at 180 mg/kg, ip measured after 14 days (reference value: 252.2 micromol/L); type: organism-based; details: in vivo, 336 h, time 14 day
[38] = AUMC(0 to t) in Sprague-Dawley rat at 50 mg/kg, ip measured upto 4 hrs by UPLC-MS/MS analysis; type: ADME, organism-based; details: in vivo

O=C(/C=C/c1ccc(O)c(O)c1)CCCCc1ccccc1
Activity (Mus musculus [1]): Active
Activity (NIH3T3 [2]): Dose-dependent-effect; Compound More Potent Than Nintedanib
inhibition (NIH3T3 [3]): Active
MRT last at 4 h [4]: 31.2 min
Vz [5]: 237.78 L/kg
Activity [6]: 1115.7 U/L
Activity (NIH3T3 [7]): Dose-dependent-effect; Compound More Potent Than Nintedanib
VRT [8]: 1.28 hr2
Activity [9]: 1.02 µmol/L
Activity [10]: 2798.2 U/L
VRT [11]: 0.779 hr2
inhibition (NIH3T3 [12]): Active
Activity (Rattus norvegicus [13]): 1.07
Vd [14]: 7.17 L/kg
Activity [15]: 160.5 U/L
half-life [16]: 51 min
half-life [17]: 21 min
half-life [18]: 39.4 min
AUMCt [19]: 1969.254 ug/L.hr
Activity [20]: Non-toxic
Activity [21]: 34.5 U/L
MRT inf [22]: 81 min
Activity [23]: Active
Activity [24]: 710.6 U/L
VRT [25]: 0.72 hr2
Cmax [26]: 1490 ng/mL
Activity (Mus musculus [27]): Active
Activity [28]: 31.2 g/L
Activity (Mus musculus [29]): Active
Activity (Rattus norvegicus [30]): 1.98
bioavailability [31]: 6.5%
bioavailability [32]: 29.6%
IC50 (NIH3T3 [33]): 510 nM
Activity (Mus musculus [34]): Active
AUC [35]: 1095.38 ng·h/mL
inhibition [36]: Active
Activity [37]: 345.6 µmol/L
AUMCt [38]: 568.11 ug/L.hr
